The first assay concerns the target T1, PTP-1B (Homo sapiens, UniProt P18031).
T1 construct: PTP-1B (purified, 1 mg/mL) as a 1:250 dilution
T1 sequence (P18031 1-321 limits assumed): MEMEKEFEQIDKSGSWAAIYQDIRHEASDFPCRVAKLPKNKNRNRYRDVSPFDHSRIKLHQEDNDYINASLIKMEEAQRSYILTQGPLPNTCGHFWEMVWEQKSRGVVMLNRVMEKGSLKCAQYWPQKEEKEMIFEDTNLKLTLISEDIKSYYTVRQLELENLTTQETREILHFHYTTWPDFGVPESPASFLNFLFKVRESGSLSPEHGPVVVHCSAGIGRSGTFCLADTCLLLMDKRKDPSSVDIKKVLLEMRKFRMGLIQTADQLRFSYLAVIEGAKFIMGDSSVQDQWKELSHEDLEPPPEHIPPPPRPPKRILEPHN
The assay can be described thus: pNPP assay for tyrosine phosphatase inhibitory activity. Type of assay: biochemical. The conditions noted are these: Table 1; pNPP substrate 10 mM, 30° C., 10 minutes, absorbance at 405 nm. How it is done:
The compounds provided herein are evaluated for biological activity as inhibitors of PTP-1B using, for example, a pNPP assay. Such an assay can be used to screen compounds for tyrosine phosphatase inhibitory activity as shown in Example 39.
A 5× stock of pNPP (p-nitrophenol phosphate) substrate is prepared as 50 mM pNPP in assay buffer. Various tyrosine phosphatase solutions can be prepared as follows: • PTP-1B (purified, 1 mg/mL) as a 1:250 dilution (to a final concentration of 4:g/mL); • TC-PTP (NEB, 1000 units in 100:L) as a 1:50 dilution (to a final concentration of 2 U/10:L (4:g/mL)); • CD45 (Calbiochem, 20:g, 400 units in 100: L) as a 1 :50 dilution (to a final concentration of 0.8 U/10:L (4:g/mL)); • LAR (NEB, 1000 units in 200:L) as a 1:75 dilution (to a final concentration of 0.7 U/10:L (4:g/mL)); and • PTP-β (UBI, #14-350, 10,000 units, 40:g/571:L) as a 1:17.5 dilution (to a final concentration of 10 U/10:L (4:g/mL));
The compound to be tested is prepared as 1:16.7 and 1:50 dilutions from stock in a total volume of 1 00:M DMSO to give final concentrations of 626 and 200:M. The reaction mixtures are prepared in a 96-well microtiter plate (on ice) as 55:L assay buffer, 5:L of the diluted compound (to a final concentration of 31.3 and 10:M), 20:L of the pNPP substrate solution (to a final concentration of 10 mM) and 20:L PTPase in assay buffer. The reactants are mixed well, the plate placed in a water bath at 30° C. and incubated for 10 minutes. The reaction is then terminated by adding 1 OO:L of 2M K2CO3 per well, and the absorbance is measured at 405 nm by conventional means.
Unless otherwise indicated, this assay was used to determine activity for the selected compounds whose activity is recorded in Table 1 and Table 2.
Take `O=C(O)c1ccc(-c2cnc(N(Cc3ccc(C(F)(F)P(=O)(O)O)c(Br)c3)c3ccc(Cl)c(Cl)c3)o2)cc1` [Example 3, 4-{2-[[3-Bromo-4-(difluoro-phosphono-methyl)-benzyl]-(3,4-dichloro-phenyl)-amino]-oxazol-5-yl}-benzoic acid]: the IC50 (usually the concentration needed to halve the response being measured) was under 0.1 µM.
The same measure, in the same setting: the result for `CC(C)(C)C(=O)OCOP(=O)(O)C(F)(F)c1ccc(CN(c2ccc(Cl)c(Cl)c2)c2ncc(-c3ccc(S(C)(=O)=O)cc3)o2)cc1Br` [Example 11, 2,2-Dimethyl-propionic acid {[2-bromo-4-({(3,4-dichloro-phenyl)-[5-(4-methanesulfonyl-phenyl)-oxazol-2-yl]-amino}-methyl)-phenyl]-difluoro-methyl}-hydroxy-phosphinoyloxymethyl ester] reads 10 to 100 µM.
`CCOP(=O)(OCC)C(F)(F)c1ccc(CN(c2ccc(Cl)c(Cl)c2)c2ncc(-c3ccc(S(C)(=O)=O)cc3)o2)cc1Br` [Example 8, {[2-Bromo-4-({(3,4-dichloro-phenyl)-[5-(4-methanesulfonyl-phenyl)-oxazol-2-yl]-amino}-methyl)-phenyl]-difluoro-methyl}-phosphonic acid diethyl ester] registered a half-inhibitory concentration (IC50) of 10 to 100 µM.
Same read-out and setting: the result for `O=P(O)(O)C(F)(F)c1ccc(CN(c2ccc(Cl)c(Cl)c2)c2ncc(-c3ccccc3)o2)cc1Br` [Example 1, [(2-Bromo-4-{[(3,4-dichloro-phenyl)-(5-phenyl-oxazol-2-yl)-amino]-methyl}-phenyl)-difluoro-methyl]-phosphonic acid] reads 1 to 10 µM; that for `CCOP(=O)(O)C(F)(F)c1ccc(CN(c2ccc(Cl)c(Cl)c2)c2ncc(-c3ccc(S(C)(=O)=O)cc3)o2)cc1Br` [Example 9, {[2-Bromo-4-({(3,4-dichloro-phenyl)-[5-(4-methanesulfonyl-phenyl)-oxazol-2-yl]-amino}-methyl)-phenyl]-difluoro-methyl}-phosphonic acid monoethyl ester], 10 to 100 µM.
The same measure, in the same setting: in the case of `CS(=O)(=O)c1ccc(-c2cnc(N(Cc3ccc(OCC(=O)O)c(Br)c3)c3ccc(Cl)c(Cl)c3)o2)cc1` [[2-Bromo-4-({(3,4-dichloro-phenyl)-[5-(4-methanesulfonyl-phenyl)-oxazol-2-yl]-amino}-methyl)-phenoxy]-acetic acid] it was 10 to 100 µM.
Same read-out and setting: the result for `COC(=O)c1ccc(Oc2ccc(-c3cnc(N(Cc4ccc(C(F)(F)P(=O)(O)O)c(Br)c4)c4ccc(Cl)c(Cl)c4)o3)cc2)cc1` [Example 10, 4-(4-{2-[[3-Bromo-4-(difluoro-phosphono-methyl)-benzyl]-(3,4-dichloro-phenyl)-amino]-oxazol-5-yl}-phenoxy)-benzoic acid methyl ester] reads 1 to 10 µM; that for `COC(=O)c1ccccc1-c1ccc(-c2cnc(N(Cc3ccc(C(F)(F)P(=O)(O)O)c(Br)c3)c3ccc(Cl)c(Cl)c3)o2)cc1` [Example 15, 4′-{2-[[3-Bromo-4-(difluoro-phosphono-methyl)-benzyl]-(3,4-dichloro-phenyl)-amino]-oxazol-5-yl}-biphenyl-2-carboxylic acid methyl ester], 1 to 10 µM; that for `COC(=O)c1ccc(CN(Cc2ccc(C(F)(F)P(=O)(O)O)cc2)c2nnc(-c3cccc(Oc4ccccc4)c3)o2)cc1` [4-({[4-(Difluoro-phosphono-methyl)-benzyl]-[5-(3-phenoxy-phenyl)-[1,3,4]oxadiazol-2-yl]-amino}-methyl)-benzoic acid methyl ester], 10 to 100 µM.

The same assay, now with this note: Table 2; pNPP substrate 10 mM, 30° C., 10 minutes, absorbance at 405 nm.
For the compound `CN(Cc1ccc(C(F)(F)P(=O)(O)O)c(Br)c1)c1ncc(-c2ccc(-c3ccccc3C(=O)O)cc2)o1` [Example 26, 4′-{2-[[3-Bromo-4-(difluoro-phosphono-methyl)-benzyl]-methyl-amino]-oxazol-5-yl}-biphenyl-2-carboxylic acid], the IC50 lay in the range of 0.5 to 1 µM.
Still for that read-out and setting: the result for `O=P(O)(O)C(F)(F)c1ccc(CN(c2ccc(F)cc2)c2ncc(-c3ccc(-c4nn[nH]n4)cc3)o2)cc1Br` [Example 38, ({2-Bromo-4-[((4-fluoro-phenyl)-{5-[4-(2H-tetrazol-5-yl)-phenyl]-oxazol-^2-yl}-amino)-methyl]-phenyl}-difluoro-methyl)-phosphonic acid] reads under 0.1 µM; that for `CS(=O)(=O)c1ccc(CN(Cc2ccc(C(F)(F)P(=O)(O)O)c(Br)c2)c2ncc(-c3ccc(S(C)(=O)=O)cc3)o2)cc1` [{[2-Bromo-4-({(4-methanesulfonyl-benzyl)-[5-(4-methanesulfonyl-phenyl)-oxazol-2-yl]-amino}-methyl)-phenyl]-difluoro-methyl}-phosphonic acid], 0.5 to 1 µM; that for `CC(C)OC(=O)OC(C)OP(=O)(O)C(F)(F)c1ccc(CN(c2ccc(F)cc2)c2ncc(-c3ccc(S(C)(=O)=O)cc3)o2)cc1Br` (stereo not shown) [{[2-Bromo-4-({(4-fluoro-phenyl)-[5-(4-methanesulfonyl-phenyl)-oxazol-2-yl]-amino}-methyl)-phenyl]-difluoro-methyl}-phosphonic acid mono-(1-isopropoxycarbonyloxy-ethyl) ester], 10 to 100 µM.
The compound `CS(=O)(=O)c1ccc(-c2cnc(N(Cc3ccc(C(F)(F)P(=O)(O)O)c(Br)c3)c3ccc(F)cc3)o2)cc1` [Example 32, {[2-Bromo-4-({(4-fluoro-phenyl)-[5-(4-methanesulfonyl-phenyl)-oxazol-2-yl]-amino}-methyl)-phenyl]-difluoro-methyl}-phosphonic acid] returned a concentration for half-maximal inhibition (IC50) of under 0.1 µM.
Same read-out and setting: in the case of `O=C(O)c1ccccc1-c1ccc(-c2cnc(N(Cc3ccc(C(F)(F)P(=O)(O)O)c(Cl)c3)c3ccc(Cl)cc3)o2)cc1` [Example 30, 4′-{2-[[3-Chloro-4-(difluoro-phosphono-methyl)-benzyl]-(4-chlorophenyl)-amino]-oxazol-5-yl}-biphenyl-2-carboxylic acid] it was 0.1 to 0.5 µM; in that of `CC(C)(C)C(=O)OCOP(=O)(OCOC(=O)C(C)(C)C)C(F)(F)c1ccc(CN(c2ccc(F)cc2)c2ncc(-c3ccc(S(C)(=O)=O)cc3)o2)cc1Br` [Example 35, 2,2-Dimethyl-propionic acid {[2-bromo-4-({(4-fluoro-phenyl)-[5-(4-methanesulfonylphenyl)-oxazol-2-yl]-amino}-methyl)-phenyl]-difluoro-methyl}-(2,2-dimethyl-propionyloxymethoxy)-phosphinoyloxymethyl ester], 10 to 100 µM.
On the same count and under the same terms, the result for `COc1ccccc1N(Cc1ccc(C(F)(F)P(=O)(O)O)c(Cl)c1)c1ncc(-c2ccc(S(C)(=O)=O)cc2)o1` [[(2-Chloro-4-{[[5-(4-methanesulfonyl-phenyl)-oxazol-2-yl]-(2-methoxy-phenyl)-amino]-methyl}-phenyl)-difluoro-methyl]-phosphonic acid] reads 0.5 to 1 µM.
With `CS(=O)(=O)c1ccc(-c2cnc(N(Cc3ccc(C(F)(F)P(=O)(O)Oc4ccccc4)c(Br)c3)c3ccc(F)cc3)o2)cc1` [{[2-Bromo-4-({(4-fluoro-phenyl)-[5-(4-methanesulfonyl-phenyl)-oxazol-2-yl]-amino}-methyl)-phenyl]-difluoro-methyl}-phosphonic acid monophenyl ester], the half-maximal inhibitory concentration (IC50) was in the range of 10 to 100 µM.
The compound `COc1cccc(CN(Cc2ccc(C(F)(F)P(=O)(O)O)c(Br)c2)c2ncc(-c3ccc(S(C)(=O)=O)cc3)o2)c1` [[(2-Bromo-4-{[[5-(4-methanesulfonyl-phenyl)-oxazol-2-yl]-(3-methoxy-benzyl)-amino]-methyl}-phenyl)-difluoro-methyl]-phosphonic acid] came in with a half-maximal inhibitory concentration (IC50) of 0.1 to 0.5 µM.
